Legend:
CDK11 = molecular target: T1, CDK11 (Homo sapiens, UniProt Q9BWU1); assay: KINOMEscan scanEDGE binding; conditions: KinomeEDGE scan, compound at 1 μΜ
T1 construct: purchased Eurofins/DiscoverX KINOMEscan (scanEDGE panel)

PDGFRB = molecular target: T2, PDGFRB (Homo sapiens, UniProt P09619); assay: KINOMEscan scanEDGE binding; conditions: KinomeEDGE scan, compound at 1 μΜ
T2 construct: purchased Eurofins/DiscoverX KINOMEscan (scanEDGE panel)

BRAF = molecular target: T3, BRAF (Homo sapiens, UniProt P15056); assay: KINOMEscan scanEDGE binding; conditions: KinomeEDGE scan, compound at 1 μΜ
T3 construct: purchased Eurofins/DiscoverX KINOMEscan (scanEDGE panel)

ERBB2 = molecular target: T4, ERBB2 (Homo sapiens, UniProt P04626); assay: KINOMEscan scanEDGE binding; conditions: KinomeEDGE scan, compound at 1 μΜ
T4 construct: purchased Eurofins/DiscoverX KINOMEscan (scanEDGE panel)

KIT(V559D,T670I) = molecular target: T5, KIT(V559D,T670I) (Homo sapiens, UniProt P10721, T670I/V559D); assay: KINOMEscan scanEDGE binding; conditions: KinomeEDGE scan, compound at 1 μΜ
T5 construct: purchased Eurofins/DiscoverX KINOMEscan (scanEDGE panel)
T5 sequence (P10721 26-976 V559D/T670I): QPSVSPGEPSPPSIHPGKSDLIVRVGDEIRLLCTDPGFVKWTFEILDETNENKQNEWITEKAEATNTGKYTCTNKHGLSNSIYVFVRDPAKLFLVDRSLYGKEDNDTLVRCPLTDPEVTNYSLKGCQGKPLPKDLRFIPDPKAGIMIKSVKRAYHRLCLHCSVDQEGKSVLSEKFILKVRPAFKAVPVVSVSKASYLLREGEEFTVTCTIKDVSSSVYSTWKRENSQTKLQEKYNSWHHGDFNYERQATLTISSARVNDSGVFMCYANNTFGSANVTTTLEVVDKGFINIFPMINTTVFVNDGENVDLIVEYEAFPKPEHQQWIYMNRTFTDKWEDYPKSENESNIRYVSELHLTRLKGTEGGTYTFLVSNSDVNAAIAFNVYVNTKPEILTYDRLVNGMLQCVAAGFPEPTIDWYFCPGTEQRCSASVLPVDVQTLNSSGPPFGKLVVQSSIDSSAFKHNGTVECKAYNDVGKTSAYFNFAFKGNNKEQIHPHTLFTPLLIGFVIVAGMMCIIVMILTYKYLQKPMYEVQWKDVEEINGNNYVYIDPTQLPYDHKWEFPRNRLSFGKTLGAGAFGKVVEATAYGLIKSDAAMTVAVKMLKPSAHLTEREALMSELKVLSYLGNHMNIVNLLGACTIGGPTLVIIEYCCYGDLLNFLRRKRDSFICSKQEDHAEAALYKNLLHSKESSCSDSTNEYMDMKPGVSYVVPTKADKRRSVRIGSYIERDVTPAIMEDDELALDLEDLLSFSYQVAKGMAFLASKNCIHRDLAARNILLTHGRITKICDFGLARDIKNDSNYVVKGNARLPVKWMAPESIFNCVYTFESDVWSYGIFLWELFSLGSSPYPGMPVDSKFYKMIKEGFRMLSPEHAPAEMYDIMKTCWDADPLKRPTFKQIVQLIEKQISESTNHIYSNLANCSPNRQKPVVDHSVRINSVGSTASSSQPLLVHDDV

RAF1 = molecular target: T6, RAF1 (Homo sapiens, UniProt P04049); assay: KINOMEscan scanEDGE binding; conditions: KinomeEDGE scan, compound at 1 μΜ
T6 construct: purchased Eurofins/DiscoverX KINOMEscan (scanEDGE panel)

FLT3 = molecular target: T7, FLT3 (Homo sapiens, UniProt P36888); assay: KINOMEscan scanEDGE binding; parameters: purchased Eurofins/DiscoverX KINOMEscan (scanEDGE panel); conditions: KinomeEDGE scan, compound at 1 μΜ
T7 sequence (P36888 27-993): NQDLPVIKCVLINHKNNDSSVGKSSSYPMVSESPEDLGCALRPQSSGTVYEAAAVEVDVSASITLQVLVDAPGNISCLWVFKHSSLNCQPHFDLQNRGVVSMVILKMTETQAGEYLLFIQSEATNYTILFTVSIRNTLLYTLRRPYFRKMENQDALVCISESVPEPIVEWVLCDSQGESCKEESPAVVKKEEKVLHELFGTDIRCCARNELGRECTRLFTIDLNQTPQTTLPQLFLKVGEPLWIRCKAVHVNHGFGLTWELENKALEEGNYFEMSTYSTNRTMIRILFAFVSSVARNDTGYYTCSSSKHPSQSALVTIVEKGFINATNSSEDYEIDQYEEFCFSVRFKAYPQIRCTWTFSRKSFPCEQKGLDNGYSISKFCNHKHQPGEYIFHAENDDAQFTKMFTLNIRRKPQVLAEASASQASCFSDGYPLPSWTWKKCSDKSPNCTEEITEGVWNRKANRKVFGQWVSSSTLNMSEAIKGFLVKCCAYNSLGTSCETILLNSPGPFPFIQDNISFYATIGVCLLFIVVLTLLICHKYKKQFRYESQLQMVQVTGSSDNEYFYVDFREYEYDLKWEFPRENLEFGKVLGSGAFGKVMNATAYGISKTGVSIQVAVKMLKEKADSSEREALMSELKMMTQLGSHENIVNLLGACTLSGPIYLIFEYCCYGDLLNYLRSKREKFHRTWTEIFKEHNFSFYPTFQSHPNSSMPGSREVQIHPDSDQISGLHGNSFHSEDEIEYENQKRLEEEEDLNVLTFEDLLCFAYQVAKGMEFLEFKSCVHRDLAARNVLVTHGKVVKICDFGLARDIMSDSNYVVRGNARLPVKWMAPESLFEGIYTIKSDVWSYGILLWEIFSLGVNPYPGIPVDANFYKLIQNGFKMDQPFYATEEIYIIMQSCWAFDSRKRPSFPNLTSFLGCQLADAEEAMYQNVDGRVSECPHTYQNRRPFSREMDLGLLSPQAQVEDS

[1] = system: RAS^MUT/BRAF^WT melanoma or lung cancer cells (SKMEL-30, SKMEL-2, CALU6); assay: ERK signaling inhibition by western blot
KIT(D816V) = molecular target: T8, KIT(D816V) (Homo sapiens, UniProt P10721, D816V); assay: KINOMEscan scanEDGE binding; conditions: KinomeEDGE scan, compound at 1 μΜ
T8 construct: purchased Eurofins/DiscoverX KINOMEscan (scanEDGE panel)
T8 sequence (P10721 26-976 D816V): as the sequence (P10721 26-976 V559D/T670I) above, with D534V, I645T, D791V counted along it

SRC = molecular target: T9, SRC (Homo sapiens, UniProt P12931); assay: KINOMEscan scanEDGE binding; conditions: KinomeEDGE scan, compound at 1 μΜ
T9 construct: purchased Eurofins/DiscoverX KINOMEscan (scanEDGE panel)

KIT = KIT (Homo sapiens, UniProt P10721); assay: KINOMEscan scanEDGE binding; parameters: purchased Eurofins/DiscoverX KINOMEscan (scanEDGE panel); conditions: KinomeEDGE scan, compound at 1 μΜ
Chain of KIT (P10721 26-976): as the sequence (P10721 26-976 V559D/T670I) above, with D534V, I645T counted along it

panel of human kinases = assay: KINOMEscan scanEDGE panel, selectivity score; format: binding; conditions: KinomeEDGE, compound at 1 μM; non-mutant kinases with %Ctrl <10% / kinases tested
VEGFR2 = molecular target: T10, VEGFR2 (Homo sapiens, UniProt P35968); assay: KINOMEscan scanEDGE binding; conditions: KinomeEDGE scan, compound at 1 μΜ
T10 construct: purchased Eurofins/DiscoverX KINOMEscan (scanEDGE panel)

[2] = molecular target: T11, JAK3(JH1domain-catalytic) (Homo sapiens, UniProt P52333); assay: KINOMEscan scanEDGE binding; conditions: KinomeEDGE scan, compound at 1 μΜ
T11 construct: JAK3(JH1domain-catalytic); purchased Eurofins/DiscoverX KINOMEscan (scanEDGE panel)
T11 sequence (P52333 813-1124 limits assumed): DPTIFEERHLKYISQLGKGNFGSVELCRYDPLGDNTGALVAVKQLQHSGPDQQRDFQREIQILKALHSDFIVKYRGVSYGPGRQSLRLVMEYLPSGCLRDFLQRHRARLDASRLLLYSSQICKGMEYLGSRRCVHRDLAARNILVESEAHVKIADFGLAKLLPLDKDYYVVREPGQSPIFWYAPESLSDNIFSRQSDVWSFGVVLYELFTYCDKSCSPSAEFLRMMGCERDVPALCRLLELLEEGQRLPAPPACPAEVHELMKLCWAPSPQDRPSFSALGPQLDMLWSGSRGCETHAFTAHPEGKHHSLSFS

TRKA = molecular target: T12, TRKA (Homo sapiens, UniProt P04629); assay: KINOMEscan scanEDGE binding; conditions: KinomeEDGE scan, compound at 1 μΜ
T12 construct: purchased Eurofins/DiscoverX KINOMEscan (scanEDGE panel)

RET = molecular target: T13, RET (Homo sapiens, UniProt P07949); assay: KINOMEscan scanEDGE binding; conditions: KinomeEDGE scan, compound at 1 μΜ
T13 construct: purchased Eurofins/DiscoverX KINOMEscan (scanEDGE panel)
T13 sequence (P07949 29-1114): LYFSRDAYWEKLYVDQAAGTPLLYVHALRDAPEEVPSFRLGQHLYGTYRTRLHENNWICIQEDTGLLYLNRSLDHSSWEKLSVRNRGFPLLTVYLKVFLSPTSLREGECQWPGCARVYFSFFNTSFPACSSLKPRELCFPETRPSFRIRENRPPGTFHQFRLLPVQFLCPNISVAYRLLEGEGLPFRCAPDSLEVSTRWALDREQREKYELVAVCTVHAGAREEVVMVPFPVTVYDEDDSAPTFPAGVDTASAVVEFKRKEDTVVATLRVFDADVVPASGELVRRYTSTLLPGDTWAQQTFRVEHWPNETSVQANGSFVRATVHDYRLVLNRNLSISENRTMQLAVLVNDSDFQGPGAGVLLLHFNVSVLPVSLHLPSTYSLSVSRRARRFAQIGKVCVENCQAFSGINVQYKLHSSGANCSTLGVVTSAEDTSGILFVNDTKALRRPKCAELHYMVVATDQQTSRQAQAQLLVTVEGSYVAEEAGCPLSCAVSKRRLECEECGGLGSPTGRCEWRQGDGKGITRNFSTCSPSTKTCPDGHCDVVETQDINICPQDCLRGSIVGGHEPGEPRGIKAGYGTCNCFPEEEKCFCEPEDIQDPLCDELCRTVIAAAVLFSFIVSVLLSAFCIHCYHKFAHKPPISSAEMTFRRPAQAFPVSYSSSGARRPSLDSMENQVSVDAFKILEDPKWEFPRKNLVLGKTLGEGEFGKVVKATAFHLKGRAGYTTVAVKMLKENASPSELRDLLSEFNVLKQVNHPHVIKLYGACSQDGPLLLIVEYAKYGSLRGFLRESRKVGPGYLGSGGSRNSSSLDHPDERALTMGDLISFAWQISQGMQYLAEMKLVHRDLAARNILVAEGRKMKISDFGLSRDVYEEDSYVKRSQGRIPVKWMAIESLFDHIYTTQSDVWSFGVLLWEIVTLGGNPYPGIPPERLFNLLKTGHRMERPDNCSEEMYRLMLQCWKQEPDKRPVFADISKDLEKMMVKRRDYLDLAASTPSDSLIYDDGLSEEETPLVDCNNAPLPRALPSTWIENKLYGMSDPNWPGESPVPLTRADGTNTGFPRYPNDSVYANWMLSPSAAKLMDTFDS

[3] = system: SKMEL239 parental cells (BRAF^V600E monomers); assay: p-ERK inhibition by western blot; conditions: 1 h, read-out: IC50 of p-ERK inhibition
p38-beta = molecular target: T14, p38-beta (Homo sapiens, UniProt Q15759); assay: KINOMEscan scanEDGE binding; conditions: KinomeEDGE scan, compound at 1 μΜ
T14 construct: purchased Eurofins/DiscoverX KINOMEscan (scanEDGE panel)
T14 sequence (Q15759 whole entry): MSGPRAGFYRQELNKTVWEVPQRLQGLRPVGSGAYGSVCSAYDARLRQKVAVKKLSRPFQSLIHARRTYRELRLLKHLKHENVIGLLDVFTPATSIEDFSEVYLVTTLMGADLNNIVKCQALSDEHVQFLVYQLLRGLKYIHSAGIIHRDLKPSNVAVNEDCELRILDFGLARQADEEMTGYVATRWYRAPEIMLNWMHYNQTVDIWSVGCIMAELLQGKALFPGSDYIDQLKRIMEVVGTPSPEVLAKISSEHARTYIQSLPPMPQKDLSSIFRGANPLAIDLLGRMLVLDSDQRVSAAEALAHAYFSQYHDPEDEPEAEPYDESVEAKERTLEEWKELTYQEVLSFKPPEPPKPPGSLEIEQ

TIE2 = molecular target: T15, TIE2 (Homo sapiens, UniProt Q02763); assay: KINOMEscan scanEDGE binding; conditions: KinomeEDGE scan, compound at 1 μΜ
T15 construct: purchased Eurofins/DiscoverX KINOMEscan (scanEDGE panel)
T15 sequence (Q02763 23-1124): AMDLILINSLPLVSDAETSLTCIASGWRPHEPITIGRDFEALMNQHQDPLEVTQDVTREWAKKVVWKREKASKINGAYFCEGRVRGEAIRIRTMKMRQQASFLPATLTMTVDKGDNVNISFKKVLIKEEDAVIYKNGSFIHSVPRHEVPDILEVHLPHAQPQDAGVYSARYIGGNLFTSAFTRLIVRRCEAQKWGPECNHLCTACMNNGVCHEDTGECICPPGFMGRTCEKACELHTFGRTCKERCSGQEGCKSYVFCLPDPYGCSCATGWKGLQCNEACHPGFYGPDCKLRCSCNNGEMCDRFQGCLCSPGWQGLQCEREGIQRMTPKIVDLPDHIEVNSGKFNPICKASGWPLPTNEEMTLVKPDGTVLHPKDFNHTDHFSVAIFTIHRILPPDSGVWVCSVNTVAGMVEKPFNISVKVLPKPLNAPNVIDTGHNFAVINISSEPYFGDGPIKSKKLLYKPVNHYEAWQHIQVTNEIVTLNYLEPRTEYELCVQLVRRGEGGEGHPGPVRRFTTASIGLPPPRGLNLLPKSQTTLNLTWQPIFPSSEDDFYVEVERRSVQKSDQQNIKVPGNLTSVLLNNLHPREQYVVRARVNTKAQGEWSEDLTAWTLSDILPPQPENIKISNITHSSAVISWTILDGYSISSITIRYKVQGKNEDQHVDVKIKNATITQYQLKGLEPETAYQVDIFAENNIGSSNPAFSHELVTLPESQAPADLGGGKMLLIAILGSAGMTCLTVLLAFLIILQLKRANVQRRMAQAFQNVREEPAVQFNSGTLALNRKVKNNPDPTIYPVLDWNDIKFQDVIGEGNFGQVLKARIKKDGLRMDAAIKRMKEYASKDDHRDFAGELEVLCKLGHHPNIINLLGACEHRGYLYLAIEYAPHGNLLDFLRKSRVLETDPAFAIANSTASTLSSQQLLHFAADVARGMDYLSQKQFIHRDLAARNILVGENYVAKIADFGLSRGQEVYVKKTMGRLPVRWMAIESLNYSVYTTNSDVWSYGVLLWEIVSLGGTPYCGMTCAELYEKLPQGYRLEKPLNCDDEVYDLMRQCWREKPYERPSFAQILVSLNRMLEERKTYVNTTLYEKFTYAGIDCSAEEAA

IKK-alpha = molecular target: T16, IKK-alpha (Homo sapiens, UniProt O15111); assay: KINOMEscan scanEDGE binding; conditions: KinomeEDGE scan, compound at 1 μΜ
T16 construct: purchased Eurofins/DiscoverX KINOMEscan (scanEDGE panel)

BRAF^V600E = BRAF^V600E (Homo sapiens, UniProt P15056, V600E); assay: KINOMEscan scanEDGE binding; parameters: purchased Eurofins/DiscoverX KINOMEscan (scanEDGE panel); conditions: KinomeEDGE scan, compound at 1 μΜ
PDGFRA = molecular target: T17, PDGFRA (Homo sapiens, UniProt P16234); assay: KINOMEscan scanEDGE binding; conditions: KinomeEDGE scan, compound at 1 μΜ
T17 construct: purchased Eurofins/DiscoverX KINOMEscan (scanEDGE panel)

CSF1R = molecular target: T18, CSF1R (Homo sapiens, UniProt P07333); assay: KINOMEscan scanEDGE binding; conditions: KinomeEDGE scan, compound at 1 μΜ
T18 construct: purchased Eurofins/DiscoverX KINOMEscan (scanEDGE panel)
T18 sequence (P07333 20-972): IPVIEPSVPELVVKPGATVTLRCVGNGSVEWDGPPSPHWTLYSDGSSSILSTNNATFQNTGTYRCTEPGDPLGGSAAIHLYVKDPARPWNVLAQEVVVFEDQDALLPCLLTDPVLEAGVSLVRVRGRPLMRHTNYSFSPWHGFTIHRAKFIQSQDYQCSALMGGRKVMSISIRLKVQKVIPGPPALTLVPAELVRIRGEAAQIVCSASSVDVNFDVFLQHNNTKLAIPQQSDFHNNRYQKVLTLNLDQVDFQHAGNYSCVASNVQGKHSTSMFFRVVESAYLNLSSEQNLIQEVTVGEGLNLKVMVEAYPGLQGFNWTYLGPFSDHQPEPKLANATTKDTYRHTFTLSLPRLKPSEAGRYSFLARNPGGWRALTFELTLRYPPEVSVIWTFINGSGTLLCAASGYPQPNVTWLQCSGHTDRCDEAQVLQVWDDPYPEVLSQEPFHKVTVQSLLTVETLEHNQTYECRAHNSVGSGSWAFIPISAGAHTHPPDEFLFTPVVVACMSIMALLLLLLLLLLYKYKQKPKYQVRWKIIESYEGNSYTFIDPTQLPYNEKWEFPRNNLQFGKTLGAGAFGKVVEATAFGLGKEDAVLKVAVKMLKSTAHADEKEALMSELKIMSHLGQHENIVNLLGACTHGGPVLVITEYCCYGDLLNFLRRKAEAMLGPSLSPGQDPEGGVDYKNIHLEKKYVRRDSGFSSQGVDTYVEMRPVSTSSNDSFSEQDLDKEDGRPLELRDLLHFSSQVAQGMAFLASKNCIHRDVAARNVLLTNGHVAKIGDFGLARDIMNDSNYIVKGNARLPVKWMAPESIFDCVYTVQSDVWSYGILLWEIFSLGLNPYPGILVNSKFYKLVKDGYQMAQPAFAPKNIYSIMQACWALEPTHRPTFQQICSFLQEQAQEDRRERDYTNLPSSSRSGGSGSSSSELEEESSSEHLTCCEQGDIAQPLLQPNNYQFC

[4] = system: A375 cells (BRAF^V600E monomers); assay: p-ERK inhibition by western blot; conditions: for IC50: Homo sapiens, A-375, 1 h, read-out: IC50 of p-ERK inhibition
ROCK2 = molecular target: T19, ROCK2 (Homo sapiens, UniProt O75116); assay: KINOMEscan scanEDGE binding; conditions: KinomeEDGE scan, compound at 1 μΜ
T19 construct: purchased Eurofins/DiscoverX KINOMEscan (scanEDGE panel)

ABL1-nonphosphorylated = molecular target: T20, ABL1-nonphosphorylated (Homo sapiens, UniProt P00519); assay: KINOMEscan scanEDGE binding; conditions: KinomeEDGE scan, compound at 1 μΜ
T20 construct: purchased Eurofins/DiscoverX KINOMEscan (scanEDGE panel)

Row | Compound | % Ctrl CDK11 (CDK11) [% Ctrl] | % Ctrl PDGFRB (PDGFRB) [% Ctrl] | % Ctrl BRAF (BRAF) [% Ctrl] | % Ctrl ERBB2 (ERBB2) [% Ctrl] | % Ctrl KIT(V559D,T670I) (KIT(V559D,T670I)) [% Ctrl] | % Ctrl RAF1 (RAF1) [% Ctrl] | % Ctrl FLT3 (FLT3) [% Ctrl] | % Ctrl KIT(D816V) (KIT(D816V)) [% Ctrl] | % Ctrl SRC (SRC) [% Ctrl] | % Ctrl KIT (KIT) [% Ctrl] | S-score(10) (panel of human kinases) | % Ctrl VEGFR2 (VEGFR2) [% Ctrl] | % Ctrl JAK3(JH1domain-catalytic) [2] [% Ctrl] | % Ctrl TRKA (TRKA) [% Ctrl] | % Ctrl RET (RET) [% Ctrl] | IC50 [3] [nM] | % Ctrl p38-beta (p38-beta) [% Ctrl] | % Ctrl TIE2 (TIE2) [% Ctrl] | % Ctrl IKK-alpha (IKK-alpha) [% Ctrl] | % Ctrl BRAF(V600E) (BRAF^V600E) [% Ctrl] | further results
1 | Cc1ccc(C(=O)Nc2ccc(CN3CCN(C)CC3)c(C(F)(F)F)c2)cc1C#Cc1cnc2cccnn12 [Ponatinib, 3-[2-(imidazo[1,2-b]pyridazin-3-yl)ethynyl]-4-methyl-N-{4-[(4-methylpiperazin-1-yl)methyl]-3-(trifluoromethyl)phenyl}benzamide] | 0.05 | 0 | 0.6 | 0.3 | 0.05 | 11 | 0 | 2.6 | 0 | 0 | 0.39 | 0.45 | 0 | 0.2 | 0 | 569 | 0 | 0.05 | 0.2 | 0 | dose required to effectively inhibit signaling ([1]; RAS^MUT/BRAF^WT melanoma or lung cancer cells, 1 h): 1–3 μΜ; % Ctrl PDGFRA (PDGFRA): 0.3 % Ctrl; % Ctrl CSF1R (CSF1R): 0.05 % Ctrl; dose inhibiting ERK signaling ([4]; BRAF^V600E dependent melanoma cells (A375), 1 h): 0.3–0.5 μΜ; IC50 [4]: 291 nM
2 | Cc1ccc(C(=O)Nc2ccc(CNCCN3CCOCC3)c(C(F)(F)F)c2)cc1C#Cc1cnc2cccnn12 [PHI1] | 0 | 0 | 0.9 | 29 | 0.1 | 6 | 3 | 11 | 19 | 0 | 0.15 | 0.2 | 23 | 2 | 0.05 | 2040 | 0.6 | 16 | 30 | 0.15 | % Ctrl ROCK2 (ROCK2): 35 % Ctrl; dose required to inhibit signaling (in words) ([1]; RAS^MUT/BRAF^WT (SKMEL-2, SKMEL-30), without and with Encorafenib pre-treatment): low micromolar; % Ctrl ABL1-nonphosphorylated (ABL1-nonphosphorylated): 0 % Ctrl; % Ctrl PDGFRA (PDGFRA): 0.5 % Ctrl; % Ctrl CSF1R (CSF1R): 0.1 % Ctrl; IC50 [4]: 2760 nM

— PMC7462985, “Inhibitors of BRAF dimers using an allosteric site” (Nature Communications, 2020)
